Broadly, the IC50 is the concentration that inhibits the measured activity by half. Low readings indicate inhibition by little substance, high ones a need for much substance.

For assay [1], the target named is T1, adenosine A1 receptor (Rattus norvegicus, UniProt P25099).
T1 construct: Whole brain minus cerebellum and brainstem from male Long Evans rats; from tissue; host or cells: rat whole brain minus cerebellum and brainstem (male Long Evans), membranes
T1 sequence (P25099 1-326): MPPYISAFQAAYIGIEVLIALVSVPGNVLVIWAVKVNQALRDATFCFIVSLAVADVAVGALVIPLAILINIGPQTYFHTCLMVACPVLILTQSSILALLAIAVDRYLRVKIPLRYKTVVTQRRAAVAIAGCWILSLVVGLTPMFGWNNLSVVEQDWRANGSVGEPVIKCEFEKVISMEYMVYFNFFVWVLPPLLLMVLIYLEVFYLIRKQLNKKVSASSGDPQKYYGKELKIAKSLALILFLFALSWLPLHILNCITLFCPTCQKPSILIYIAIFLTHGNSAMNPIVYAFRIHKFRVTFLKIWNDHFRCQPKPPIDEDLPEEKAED
Briefly: Adenosine Receptor Binding--A1 Receptor Affinity (RBA1), [3H]-CHA binding, rat whole brain membranes. As to conditions: 1.0 nM [3H]-CHA, 25° C., 1 h. Also on record: species or system rat (male Long Evans). The protocol:
Adenosine Receptor Binding--A1 Receptor Affinity (RBA1)
Whole brain minus cerebellum and brainstem from male Long Evans rats (150-200 g) was homogenized in 30 volumes of ice-cold 0.05M Tris-HCl buffer pH 7.7 using a Brinkman Polytron PT-10, (setting number 6 for 20 seconds) and centrifuged for ten minutes at 20,000×g (Sorvall RC-2), 4° C. The supernatant was discarded, and the pellet was resuspended and centrifuged as before. The pellet was resuspended in 20 ml Tris-HCl buffer containing two International Units/ml of adenosine deaminase (Sigma type III from calf intestinal mucosa), incubated at 37° C. for 30 minutes, then subsequently at 0° C. for ten minutes. The homogenate was again centrifuged, and the final pellet was resuspended in ice-cold 0.05M Tris-HCl buffer pH 7.7 to a concentration of 20 mg/ml original wet tissue weight and used immediately.
Tissue homogenate (10 mg/ml) was incubated in 0.05M Tris-HCl buffer pH 7.7 containing 1.0 nM [^3 H]-N^6 -cyclohexyladenosine[^3 H]-CHA) with or without test agents in triplicate for one hour at 25° C. Incubation volume was 2 ml. Unbound [^3 H]-CHA was separated by rapid filtration under reduced pressure through Whatman glass fiber (GF/B) filters. The filters were rinsed three times with 5 ml of ice cold 0.05M Tris-HCl buffer pH 7.7. The radio-labeled ligand retained on the filter was measured by liquid scintillation spectrophotometry after shaking the filters for one hour or longer on a mechanical shaker in 10 ml of Beckman Ready-Solv HP scintillation cocktail.
Nonspecific binding was defined as the binding which occurred in the presence of 1 mM theophylline. The concentration of test agent which inhibited 50% of the specific binding (IC50) was determined by nonlinear computer curve fit. The Scatchard plot was calculated by linear regression of the line obtained by plotting the amount of radioligand bound (pmoles/gram of tissue) [formula] Since the amount of radioligand bound was a small fraction of the total amount added, free radioligand was defined as the concentration (nM) of radioligand added to the incubation mixture. The Hill coefficient was calculated by linear regression of the line obtained by plotting the log of the bound radioligand vs the log of the [formula] The maximal number of binding sites (Bmax) was calculated from the Scatchard plot.

In assay [2] the target is T2, adenosine A2 receptor (Rattus norvegicus, UniProt P30543).
T2 construct: 5 mg original tissue weight of rat weight of rat striatal membranes; tissue Pel-Freez (Rogers, Ark.) for the brains; host or cells: rat striatum (Sprague-Dawley; Long-Evans gave essentially identical results), membranes
Briefly: Adenosine Receptor Binding--A2 Receptor Affinity (RBA2), [3H]NECA binding, rat striatal membranes. Also on record: species or system rat (mixed sex Sprague-Dawley; male Long-Evans). The conditions noted are these: 4 nM [3H]NECA, 50 nM N6-cyclopentyladenosine, 25° C., 60 min. As to the method:
Adenosine Receptor Binding--A2 Receptor Affinity (RBA2)
Brains from 200-500 g mixed sex Sprague-Dawley rats were purchased from Pel-Freez (Rogers, Ark.). […] Brains were thawed and then kept on ice while the striata were dissected out. Striata were disrupted in 10 vol of ice-cold 50 mM Tris.HCl (pH 7.7 at 25° C., pH 8.26 at 5° C.) (Tris) for 30 seconds in a Polytron PT-10 (Brinkmann) at setting 5. The suspension was centrifuged at 50,000 xg for ten minutes, the supernatant discarded, the pellet resuspended in 10 vol ice-cold Tris as above, recentrifuged, resuspended at 1 g/5 ml, and stored in plastic vials at -70° C. […] When needed, tissue was thawed at room temperature, disrupted in a Polytron, and kept on ice until used.
Test compounds were dissolved at 10 mM in dimethylsulfoxide on the same day as the experiment, and diluted in dimethylsulfoxide to 100× the final incubation concentration. […] [^3 H]NECA was diluted to 40 nM in Tris. […] After all additions, the rack of tubes was vortexed, and the tubes were then incubated for 60 min at 25° C. in a shaking water bath. The rack of tubes was vortexed an additional time halfway through the incubation.
Incubations were terminated by filtration through 2.4 cm GF/B filters under reduced pressure. Each tube was filtered as follows: the contents of the tube were poured onto the filter, 4 ml of ice-cold Tris were added to the tube and the contents poured onto the filter, and the filter was washed twice with 4 ml of ice-cold Tris. The filtration was complete in about twelve seconds. Filters were put in scintillation vials, 8 ml of Formula 947 scintillation fluid added, and the vials left overnight, shaken, and counted in a liquid scintillation counter at 40% efficiency.
The IC50 was calculated by weighted nonlinear least squares curve-fitting to the mass-action equation. [formula] where Y is cpm bound
T is cpm total binding without drug
S is cpm specific binding without drug
D is the concentration of drug
K is the IC50 of the drug
Weighting factors were calculated under the assumption that the standard deviation was proportional to the predicted value of Y. Nonspecific binding was treated as a very large (infinite) concentration of drug in the computer analysis.

A short description of assay [3]: Mouse Activity and Screen Test (MAST), screen test failure (ST). Format: in vivo, mouse (Swiss-Webster, male). As to conditions: for Inhibition of screen test failure: percent of mice falling off the screen. As to the method:
Treatments are administered intraperitoneally one hour prior to testing. […] Compounds are dissolved or suspended in 0.2% Methocel. Control animals are injected with Methocel.
The compounds are identified in the Examples.

T2 sequence (P30543 whole entry): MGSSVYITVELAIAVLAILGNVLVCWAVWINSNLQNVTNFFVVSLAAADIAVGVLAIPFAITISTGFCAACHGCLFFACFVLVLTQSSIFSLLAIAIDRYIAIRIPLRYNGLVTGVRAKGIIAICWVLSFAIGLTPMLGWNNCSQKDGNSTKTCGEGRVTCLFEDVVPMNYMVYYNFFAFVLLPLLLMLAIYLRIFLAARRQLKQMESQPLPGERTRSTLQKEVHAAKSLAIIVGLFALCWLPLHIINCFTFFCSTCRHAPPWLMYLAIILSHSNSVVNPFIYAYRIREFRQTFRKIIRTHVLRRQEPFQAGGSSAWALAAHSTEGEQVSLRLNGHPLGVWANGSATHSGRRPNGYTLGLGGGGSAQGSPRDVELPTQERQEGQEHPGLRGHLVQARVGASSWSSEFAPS

Turning to `OC[C@H]1O[C@@H](n2cnc3c(NCCC(c4ccccc4)c4ccccc4)ncnc32)[C@H](O)[C@@H]1O` [Example 2, N^6-(3,3-Diphenylpropyl)adenosine], the IC50 in assay [1] was 139 nM; in assay [2] it was 390 nM. In addition, the “Inhibition of screen test failure” value in assay [3] (10 mg/kg intraperitoneal), in assay [3] (30 mg/kg intraperitoneal) and in assay [3] (100 mg/kg intraperitoneal) was 0% each time. In assay [3] (Mus musculus, ip, lowest dose at which an A rating is achieved, screen test, intraperitoneal, 1 h prior to testing, read-out: MAST ST LAD), the minimal effective dose was greater than 100 mg/kg.

The record behind these values is US4657897A, “N^6 -substituted adenosines for treating pain” (Warner-Lambert Company, priority 1985, dated 1987).
